US6713280B1, “Enhancement of peptide cellular uptake” (Thomas Jefferson University, priority 1999, dated 2004)
Residues, ends and D or L forms follow the SMILES beside them. *: point of attachment. Decanoyl = CCCCCCCCCC(=O)*

Assays:
[1] = biological target: Bcl-2 protein (Homo sapiens, UniProt P10415); experiment: Fluorescence polarization competition binding against Flu-SEQ ID NO:30 (BH3 peptides); conditions: FIG. 3; for relative competition to Flu-SEQ ID NO:30 binding: comparison among BH3 peptides; for inhibition of Bcl-2 binding of Flu-SEQ ID NO:30: competition curve
Sequence of Bcl-2 protein (P10415 whole entry): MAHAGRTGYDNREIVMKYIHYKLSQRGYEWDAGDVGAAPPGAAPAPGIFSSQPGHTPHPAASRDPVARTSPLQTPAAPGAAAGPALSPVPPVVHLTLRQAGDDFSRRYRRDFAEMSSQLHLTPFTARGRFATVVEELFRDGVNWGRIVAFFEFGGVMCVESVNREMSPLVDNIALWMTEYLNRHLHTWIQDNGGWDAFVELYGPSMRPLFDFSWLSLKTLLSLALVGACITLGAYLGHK

[2] = biological target: GST-Bcl-2 protein (Homo sapiens, UniProt P10415); experiment: Fluorescence polarization competition binding assay of decyl-SEQ ID NO:56 to GST-Bcl-2
Sequence of GST-Bcl-2 protein (P10415 1-205 limits assumed): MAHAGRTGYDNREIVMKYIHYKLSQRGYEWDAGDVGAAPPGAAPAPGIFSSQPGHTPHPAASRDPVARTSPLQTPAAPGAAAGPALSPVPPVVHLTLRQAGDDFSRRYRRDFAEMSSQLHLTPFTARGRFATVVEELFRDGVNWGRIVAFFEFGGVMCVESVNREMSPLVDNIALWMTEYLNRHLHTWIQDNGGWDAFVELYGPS
Procedure: The binding equation proposed by Weinhold et al., J. Am. Chem. Soc. 114:9270-9275, 1992, was used to derive the dissociation constant KD of an inhibitor from petition inhibition curve, [formula]
The Ec50 for the Bcl-2 binding of decyl-SEQ ID NO:56 was 0.13 μM, indicating strong binding.
The binding of the peptide conjugate decyl-SEQ ID NO:56 to the Bcl-2 protein was assayed by the following competition assay. […] The following micromolar concentrations of decyl-K1285 were then incubated with the mixture for 30 minutes at 37° C. (0.005, 0.01, 0.02, 0.04 0.08 0.16 and 0.32).

[3] = tested on: HL-60 cells transfected with Bcl-2 to overexpress Bcl-2; experiment: DNA fragmentation apoptosis assay; format: cell-based, human; conditions: 50 μM, 2 hours, Bcl-2-transfected HL-60 cells, FIG. 6
[4] = tested on: HL-60 cell line (parent line); conditions: 50 μM, parent HL-60 line; cited from earlier work
[5] = tested on: Bcl-2-transfected HL-60 line; conditions: 50 μM (same concentration); cited from earlier work

Compound: NLWAAQRYGRELRRMSDEFEGSFKGL [SEQ ID NO:1]
- relative competition to Flu-SEQ ID NO:30 binding [1]: strongest competition
- inhibition of Bcl-2 binding of Flu-SEQ ID NO:30 [1]: clear dose-dependent inhibition

Compound: KKLSECLKRIGDELDS [SEQ ID NO:32]
- relative competition to Flu-SEQ ID NO:30 binding [1]: weaker activity
- inhibition of Bcl-2 binding of Flu-SEQ ID NO:30 [1]: clear dose-dependent inhibition

Compound: CCCCCCCCCC(=O)N[C@@H](CCCCN)C(=O)N[C@@H](CC(N)=O)C(=O)N[C@@H](CC(C)C)C(=O)N[C@@H](Cc1c[nH]c2ccccc12)C(=O)N[C@@H](C)C(=O)N[C@@H](C)C(=O)N[C@@H](CCC(N)=O)C(=O)N[C@@H](CCCNC(=N)N)C(=O)N[C@@H](Cc1ccc(O)cc1)C(=O)NCC(=O)N[C@@H](CCCNC(=N)N)C(=O)N[C@@H](CCC(=O)O)C(=O)N[C@@H](CC(C)C)C(=O)N[C@@H](CCCNC(=N)N)C(=O)N[C@@H](CCCNC(=N)N)C(=O)N[C@@H](CCSC)C(=O)N[C@@H](CO)C(=O)N[C@@H](CC(=O)O)C(=O)N[C@@H](CCC(=O)O)C(=O)N[C@@H](Cc1ccccc1)C(=O)N[C@@H](CCC(=O)O)C(=O)NCC(=O)N[C@@H](CO)C(=O)N[C@@H](Cc1ccccc1)C(=O)N[C@@H](CCCCN)C(=O)NCC(=O)N[C@@H](CC(C)C)C(=O)O [decyl-SEQ ID NO:56] (Decanoyl-KNLWAAQRYGRELRRMSDEFEGSFKGL-OH; C-terminus assumed)
- EC50 [2]: 130 nM
- DNA fragmentation (marker of apoptosis) [3]: DNA fragmentation was observed

Compound: COc1cc([C@@H]2c3cc4c(cc3[C@@H](O[C@@H]3O[C@@H]5CO[C@@H](C)O[C@H]5[C@H](O)[C@H]3O)[C@H]3COC(=O)[C@H]23)OCO4)cc(OC)c1O [etoposide]
- sensitivity of cells to the drug [4]: sensitive
- sensitivity of cells to the drug [5]: resistant

Compound: CCCCCCCCCC(=O)O [decanoic acid, reference compound]
- DNA fragmentation (marker of apoptosis) [3]: observed in the decyl-SEQ ID NO:56-treated cells only

Compound: KNLWAAQRYGRELRRMSDEFEGSFKGL [SEQ ID NO:56]
- DNA fragmentation (marker of apoptosis) [3]: observed in the decyl-SEQ ID NO:56-treated cells only

Compound: GQVGRQMIIGDDINR (GQVGRQAAIIGDDINR) [SEQ ID NO:58, reference compound]
- inhibition of Bcl-2 binding of Flu-SEQ ID NO:30 [1]: no significant effect
